# Test results: patent US11273176B2, “Use of PLA2G5-deficient suppressive macrophages in suppression of inflammation” (THE BRIGHAM AND WOMEN'S HOSPITAL, INC., priority 2016, dated 2022)
# B1: IL-33: mouse rIL-33 (R&D Systems) given intranasally or added to ILC2 cultures (protein, UniProt Q8BVZ5 1-266, looked up)
# Interleukin-33: MRPRMKYSNSKISPAKFSSTAGEALVPPCKIRRSQQKTKEFCHVYCMRLRSGLTIRKETSYFRKEPTKRYSLKSGTKHEENFSAYPRDSRKRSLLGSIQAFAASVDTLSIQGTSLLTQSPASLSTYNDQSVSFVLENGCYVINVDDSGKDQEQDQVLLRYYESPCPASQSGDGVDGKKLMVNMSPIKDTDIWLHANDKDYSVELQRGDVSPPEQAFFVLHKKSSDFVSFECKNLPGTYIGVKDNQLALVEEKDESCNNIMFKLSKI
# Experiments:
# Pla2g5-null ILC2 = assay: In-vitro stimulation of sorted Pla2g5-null ILC2, intracellular IL-5 by flow cytometry; assay type: cell-based, mouse; details: LA 200 μM, 8 h; for percentage of IL-5-expressing ILC2s: OA 200 μM or IL-33 30 ng/ml alone; for IL-33-induced increase in IL-5 positive ILC2s, effect of FFA: OA 200 μM with IL-33 30 ng/ml
# Protocol: (§1) Lung were manually chopped to approximately 10 mm pieces, then digested in RPMI containing 428 U/ml Collagenase IV (Worthington, Lakewood, N.J.) and 20 mg/ml DNAse I (Roche, Mannheim, Germany) (30 min, 37° C.). After red cell lysis, the obtained cell suspension from single mouse was washed, and counted. After washing, cells were blocked (1 h, 4° C.) with 1% of rat anti mouse CD16/CD32 (BD Biosciences, San Jose, Calif.) and 10% donkey serum and then stained (1 h, 4° C.) with appropriate Abs. Mouse cells were stained with CD45 PercPCy5 (clone 30-F11, BioLegend, San Diego, Calif.), CD19 FITC (6D5, Biolegend), CD3 FITC (145-2C11, BioLegend), CD11b FITC (M1/70, BioLegend), CD11c PE-Cy7 FITC (N418, BioLegend), Ly6G/C FITC (RB6-8C5, eBiosciences), Nk1.1 FITC (PK136, Biolegend), FceR1 FITC (MAR-1, Biolegend), Siglec-F APC (E50-2440, BD Bioscience), Thy 1.2 APC (53-2.1, eBioscience, San Diego, Ca), ICOS (C398.4A, eBiosciences), Sca-1 (D7, eBioscieces), CD25 (PC61, eBiosciences), ST2 biotin (clone DJ8, MD Bioscience) followed by PE streptavidin (eBiosciences). In selected experiments cells were fixed with 4% paraformaldehyde (7 min, 21° C.), washed, permeabilized with 0.1% saponin (SigmaAldrich, St Louis, Ca) (7 min, 21° C.) and stained with CD68 APC (FA-11, AbD Serotec, Raleigh, Nc), IL-5 PE (TRFKS, Biolegend), IL-13 (eBio13A eBiosciences), IL-33 PE (396118, R&D Systems, Minneapolis, Minn.), rabbit polyclonal anti murine RELM-a (Peprotech, Rocky Hill N.J.)) and corresponding isotypes as controls. Acquisition was performed on a FACSCanto flow cytometer with FACSDiva software (BD Biosciences), and data were analyzed with FlowJo (Tree Star, Ashland, Oreg.).
# (§2) Wt and Pla2g5-null mice received four doses of 25 ug of Alternaria in 20 ul of PBS intranasally on day 0, 3, 6 and 9 and euthanized 18h later in order to expand ILC2 prior to FACs sorting. Sorting of ILC2 (CD45+ Lin− (CD3, CD19, Ly6g, CD11c, CD11b, Nk1.1, FcεR1^−), Thy1.2+) was performed using a FACSDiva 8.0.1 cell sorter (BD bio-science). Purified ILC2 (>98%) were rested for 40 hours with 10 ng/mL rIL-2 and rIL-7 (R&D Systems, Minneapolis, Minn.) in a 96 well around bottom plates (20000 cells per well). Prior to stimulation, the medium was changed to fresh medium. ILC2 were cultured with 30 ng/mL rIL-33 (R&D Systems), 200 μM Linoleic Acid (Cayman Chemical) or 200 μM Oleic Acid (Cayman Chemical)^22 or all together for 8h. For intracellular cytokine staining, 1 μl/mL of Golgi Plug (BD Bioscience) was added to ILC2 6h before collection for FACs analysis.
# Wt ILC2 = assay: In-vitro stimulation of sorted Wt ILC2, intracellular IL-5 by flow cytometry; assay type: cell-based, mouse; details: LA 200 μM, 8 h; for percentage of IL-5-expressing ILC2s: OA 200 μM or IL-33 30 ng/ml alone
# Protocol: as §1, §2
# Pla2g5-null mice = assay: IL-33-induced pulmonary inflammation (intranasal r-IL-33 with or without LA/OA) in Pla2g5-null mice; assay type: in vivo, mouse; details: for IL-33-induced eosinophilia (numbers of eosinophils), effect of FFA given with IL-33 / pulmonary inflammation: intranasal, 4 doses in 10 days; for pulmonary inflammation: agent given alone
# Protocol: (§3) C57/BL6 Wt and Pla2g5-null mice^46, 47 (9-12 wk-old males) received 25 μg of Alternaria haracter extract (Greer Laboratories, Lenoir, N.C.) in 20 uL of PBS or PBS alone intranasally on days 0, 3, 6 and 9 and euthanized 18 hours later^1 or a single dose of 100 μg and were euthanized after 1 h or 3 h^2. For IL-33-induced pulmonary inflammation, Wt and Pla2g5-null naïve mice were given mouse rIL-33 (R&D Systems, Minneapolis, Minn.) intranasally (i.n.) 100 ng/dose on days 0, 3, 6 and 9 with or without LA (132 nM)^28 or OA (106 nM), and mice were euthanized 18 hours after the last dose.
# as §1
# C57/BL6 Wt mice = assay: IL-33-induced pulmonary inflammation (intranasal r-IL-33 with or without LA/OA) in Wt mice; assay type: in vivo, mouse; details: for pulmonary inflammation: agent given alone
# Protocol: as §3, §1
Molecule,percentage of IL-5-expressing ILC2s (Pla2g5-null ILC2),"IL-33-induced increase in IL-5 positive ILC2s, effect of FFA (Pla2g5-null ILC2)",percentage of IL-5-expressing ILC2s (Wt ILC2),"IL-33-induced expression of IL-5 by ILC2s, effect of FFA (Wt ILC2; OA 200 μM with IL-33 30 ng/ml)","IL-33-induced eosinophilia (numbers of eosinophils), effect of FFA given with IL-33 (Pla2g5-null mice)",pulmonary inflammation (Pla2g5-null mice),"IL-33-induced eosinophilia (numbers of eosinophils), effect of FFA given with IL-33 (C57/BL6 Wt mice; intranasal, 4 doses in 10 days)","pulmonary inflammation (C57/BL6 Wt mice; intranasal, 4 doses in 10 days)","numbers of eosinophils, ILC2 and Sca-1+ILC2 (Pla2g5-null mice; IL-33 i.n. over 10 days, compared with Wt controls)",macrophage activation (RELMα in macrophages) (Pla2g5-null mice; exogenous IL-33 for 10 days),"numbers of eosinophils, ILC2s and Sca-1+ILC2 (C57/BL6 Wt mice; IL-33 i.n. over 10 days (100 ng/dose days 0, 3, 6, 9), homogenate lungs, flow cytometry)",macrophage activation (RELMα in macrophages) (C57/BL6 Wt mice; exogenous IL-33 for 10 days)
"CCCCC/C=C\C/C=C\CCCCCCCC(=O)O [LA, linoleic acid]",Neither LA nor OA induced significant IL-5 expression,suppressed,Neither LA nor OA induced significant IL-5 expression,significantly potentiated,failed to potentiate,Neither LA nor OA alone caused pulmonary inflammation,sharp potentiation,Neither LA nor OA alone caused pulmonary inflammation,,,,
"CCCCCCCC/C=C\CCCCCCCC(=O)O [OA, oleic acid]",Neither LA nor OA induced significant IL-5 expression,inactive,Neither LA nor OA induced significant IL-5 expression,,substantially enhance,Neither LA nor OA alone caused pulmonary inflammation,,Neither LA nor OA alone caused pulmonary inflammation,,,,
B1,significantly increased,,significantly increased,,,insufficient,,induces,markedly diminished,markedly impaired,robustly increased,induced substantial macrophage activation
